Earlier results, collected in patent EP2637695B1, “OLMESARTAN FORMULATIONS” (Abdi Ibrahim Ilac Sanayi ve Ticaret Anonim Sirketi, priority 2010, dated 2012).
Like-named read-outs stand apart in the source and are kept apart here.

Experiments:
[1] = in humans

bioavailability (BA) [1]: approximately 26% | solubility (in 17 hydrochloric acid): insoluble | solubility (in strong acid): sparingly soluble | solubility (in strong base): soluble | solubility (in water and in the pH range of 3 to 9): practically insoluble
SMILES: CCCc1nc(C(C)(C)O)c(C(=O)OCc2oc(=O)oc2C)n1Cc1ccc(-c2ccccc2-c2nnn[nH]2)cc1 [Olmesartan medoxomil, (5-methyl-2-oxo-1,3-dioxolen-4-yl)rnethyl 4-(1-hydroxy-1-methylethyl)-2-propyl-1-{4-[2-(tetrazol-5-yl)phenyl]phenyl}methylimidazole-5-carboxylate]
